Experimental data: ChEMBL document CHEMBL3352684, “Discovery of MK-3697: a selective orexin 2 receptor antagonist (2-SORA) for the treatment of insomnia” (Bioorg Med Chem Lett, 2014)
Active and inactive are the calls of the source. The calls are words filed in the database; no cut-off is given here.

How the values were obtained:
Cytochrome P450 2D6 = Cytochrome P450 2D6 (Homo sapiens, UniProt P10635); experiment: Reversible inhibition of CYP2D6 (unknown origin); format: ADME
[1] = Drug uptake in dog CSF at 3 mg/kg, po; format: ADME, organism-based, Canis lupus familiaris, Cerebrospinal fluid; design: dose 3 mg/kg, route oral; settings: in vivo, read-out: Drug uptake
[2] = Clearance in rat at 2 mg/kg, iv; format: ADME, organism-based; design: dose 2 mg/kg, route intravenous; settings: in vivo
[3] = molecular target: T1, Orexin receptor type 2 (Mus musculus) (UniProt P58308); experiment: Antagonist activity at mouse OX2R by FLIPR assay
T1 sequence (whole entry): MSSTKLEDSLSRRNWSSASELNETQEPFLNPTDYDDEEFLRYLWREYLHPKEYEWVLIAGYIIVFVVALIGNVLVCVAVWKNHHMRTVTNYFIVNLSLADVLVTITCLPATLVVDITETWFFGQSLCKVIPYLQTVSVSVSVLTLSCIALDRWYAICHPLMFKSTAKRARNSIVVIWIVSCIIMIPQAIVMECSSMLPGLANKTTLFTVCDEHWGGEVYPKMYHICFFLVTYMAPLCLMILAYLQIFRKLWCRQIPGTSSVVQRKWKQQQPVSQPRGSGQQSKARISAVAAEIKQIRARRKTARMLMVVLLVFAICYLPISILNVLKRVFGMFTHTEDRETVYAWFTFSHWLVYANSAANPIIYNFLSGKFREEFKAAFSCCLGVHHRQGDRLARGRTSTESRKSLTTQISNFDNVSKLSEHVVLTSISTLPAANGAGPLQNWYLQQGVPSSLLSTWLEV

Canis familiaris [4] = experiment: Increase in rapid eye movement sleep in dog at 3 mg/kg, po after 3.5 hrs; format: functional, organism-based; design: dose 3 mg/kg; settings: Canis lupus familiaris
[5] = Half life in rat at 2 mg/kg, iv; format: ADME, organism-based; design: dose 2 mg/kg, route intravenous; settings: in vivo
Rattus norvegicus = experiment: Reduction in active wake sleep in Sprague-Dawley rat at 15 mg/kg, po after 2 hrs; format: functional, organism-based; design: dose 15 mg/kg
[6] = Drug uptake in mouse CSF at 100 mg/kg, po after 2 hrs; format: ADME, organism-based; design: dose 100 mg/kg, route oral; settings: cerebrospinal fluid, read-out: Drug uptake
Mus musculus [7] = experiment: Increase in slow wave sleep in OX2R-knockout mouse at 100 mg/kg, po after 2 hrs; format: functional, organism-based; design: dose 100 mg/kg
[8] = molecular target: T2, Orexin/Hypocretin receptor type 1 (Rattus norvegicus) (UniProt P56718); experiment: Antagonist activity at Sprague-Dawley rat OX1R by FLIPR assay
T2 sequence (whole entry): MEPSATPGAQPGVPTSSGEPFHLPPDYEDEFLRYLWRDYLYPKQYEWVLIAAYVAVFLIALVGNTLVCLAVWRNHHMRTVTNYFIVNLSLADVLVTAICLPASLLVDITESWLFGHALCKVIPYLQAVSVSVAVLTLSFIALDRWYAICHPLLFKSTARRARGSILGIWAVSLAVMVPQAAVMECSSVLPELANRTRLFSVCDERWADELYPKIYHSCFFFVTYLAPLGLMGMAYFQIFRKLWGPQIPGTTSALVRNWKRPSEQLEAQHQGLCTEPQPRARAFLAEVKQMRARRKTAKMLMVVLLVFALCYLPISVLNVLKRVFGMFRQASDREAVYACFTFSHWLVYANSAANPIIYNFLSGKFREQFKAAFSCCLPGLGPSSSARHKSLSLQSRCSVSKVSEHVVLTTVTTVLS

[9] = molecular target: T3, Nuclear receptor subfamily 1 group I member 2 (Homo sapiens, UniProt O75469); experiment: Activation of PXR (unknown origin) at 30 uM relative to rifampicin
T3 sequence (O75469 whole entry): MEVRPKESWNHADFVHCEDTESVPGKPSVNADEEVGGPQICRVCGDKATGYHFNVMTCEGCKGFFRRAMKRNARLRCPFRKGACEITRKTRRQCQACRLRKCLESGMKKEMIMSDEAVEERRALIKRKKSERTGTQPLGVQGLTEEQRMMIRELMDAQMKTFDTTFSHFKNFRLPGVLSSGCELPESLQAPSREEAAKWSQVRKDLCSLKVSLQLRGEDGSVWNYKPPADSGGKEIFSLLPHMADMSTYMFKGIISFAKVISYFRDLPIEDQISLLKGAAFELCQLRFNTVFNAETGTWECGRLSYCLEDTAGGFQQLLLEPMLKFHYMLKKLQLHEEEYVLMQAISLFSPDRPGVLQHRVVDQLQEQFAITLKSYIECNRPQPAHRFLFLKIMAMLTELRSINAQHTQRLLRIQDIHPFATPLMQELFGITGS

[10] = Plasma protein binding in Sprague-Dawley rat; format: ADME, cell-free; settings: read-out: PPB (converted)
[11] = Lipophilicity, log D of the compound; format: physicochemical; settings: octanol/water
[12] = molecular target: T4, Orexin receptor type 2 (Canis lupus familiaris) (UniProt Q9TUP7); experiment: Antagonist activity at dog OX2R by FLIPR assay
T4 sequence (whole entry): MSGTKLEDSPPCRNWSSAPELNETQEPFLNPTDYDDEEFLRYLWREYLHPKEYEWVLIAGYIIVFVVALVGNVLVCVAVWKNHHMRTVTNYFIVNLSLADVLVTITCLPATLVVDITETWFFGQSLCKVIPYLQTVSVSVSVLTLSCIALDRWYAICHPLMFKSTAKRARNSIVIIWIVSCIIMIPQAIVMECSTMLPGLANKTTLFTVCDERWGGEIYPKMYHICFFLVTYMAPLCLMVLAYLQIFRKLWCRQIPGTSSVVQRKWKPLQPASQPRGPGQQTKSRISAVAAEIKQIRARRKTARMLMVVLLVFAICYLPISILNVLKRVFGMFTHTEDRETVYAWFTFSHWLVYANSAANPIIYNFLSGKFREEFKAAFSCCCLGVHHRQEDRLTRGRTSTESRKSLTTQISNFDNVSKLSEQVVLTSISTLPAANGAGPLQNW

[13] = AUC (0 to infinity) in rat at 5 mg/kg, po; format: ADME, organism-based; design: time infinity, dose 5 mg/kg, route oral; settings: plasma
[14] = Volume of distribution at steady state in rat at 2 mg/kg, iv; format: ADME, organism-based; design: dose 2 mg/kg, route intravenous; settings: in vivo, read-out: Vdss
Cytochrome P450 2C9 = Cytochrome P450 2C9 (Homo sapiens, UniProt P11712); experiment: Reversible inhibition of CYP2C9 (unknown origin); format: ADME
[15] = Cmax in dog at 3 mg/kg, po; format: ADME, organism-based, Canis lupus familiaris; design: dose 3 mg/kg, route oral; settings: in vivo
[16] = Tmax in Sprague-Dawley rat at 15 mg/kg, po; format: ADME, organism-based; design: dose 15 mg/kg, route oral; settings: in vivo
[17] = Tmax in mouse at 100 mg/kg, po; format: ADME, organism-based; design: dose 100 mg/kg, route oral; settings: in vivo
[18] = Cmax in Sprague-Dawley rat at 15 mg/kg, po; format: ADME, organism-based; design: dose 15 mg/kg, route oral; settings: in vivo
Canis familiaris [19] = experiment: Increase in slow wave sleep in dog at 3 mg/kg, po after 2 hrs; format: functional, organism-based; design: dose 3 mg/kg; settings: Canis lupus familiaris
[20] = molecular target: T3, Nuclear receptor subfamily 1 group I member 2; experiment: Activation of PXR (unknown origin)
[21] = Oral bioavailability in […] dog at 3 mg/kg; format: ADME, organism-based, Canis lupus familiaris; settings: in vivo
[22] = Tmax in rat at 5 mg/kg, po; format: ADME, organism-based; design: dose 5 mg/kg, route oral; settings: in vivo
[23] = Tmax in dog at 3 mg/kg, po; format: ADME, organism-based, Canis lupus familiaris; design: dose 3 mg/kg, route oral; settings: in vivo
[24] = Apparent permeability of the compound; format: physicochemical; settings: not told
[25] = Cmax in rat at 5 mg/kg, po; format: ADME, organism-based; design: dose 5 mg/kg, route oral; settings: in vivo
[26] = Clearance in dog with cassette dosing; format: ADME, organism-based, Canis lupus familiaris; settings: in vivo
[27] = Oral bioavailability in rat at 5 mg/kg; format: ADME, organism-based; settings: in vivo
[28] = Plasma protein binding in human; format: ADME, cell-free; settings: read-out: PPB (converted)
Mus musculus [29] = experiment: Reduction in active wake sleep in mouse at 100 mg/kg, po after 2 hrs; format: functional, organism-based; design: dose 100 mg/kg

Sequence of Cytochrome P450 2D6 (P10635 whole entry): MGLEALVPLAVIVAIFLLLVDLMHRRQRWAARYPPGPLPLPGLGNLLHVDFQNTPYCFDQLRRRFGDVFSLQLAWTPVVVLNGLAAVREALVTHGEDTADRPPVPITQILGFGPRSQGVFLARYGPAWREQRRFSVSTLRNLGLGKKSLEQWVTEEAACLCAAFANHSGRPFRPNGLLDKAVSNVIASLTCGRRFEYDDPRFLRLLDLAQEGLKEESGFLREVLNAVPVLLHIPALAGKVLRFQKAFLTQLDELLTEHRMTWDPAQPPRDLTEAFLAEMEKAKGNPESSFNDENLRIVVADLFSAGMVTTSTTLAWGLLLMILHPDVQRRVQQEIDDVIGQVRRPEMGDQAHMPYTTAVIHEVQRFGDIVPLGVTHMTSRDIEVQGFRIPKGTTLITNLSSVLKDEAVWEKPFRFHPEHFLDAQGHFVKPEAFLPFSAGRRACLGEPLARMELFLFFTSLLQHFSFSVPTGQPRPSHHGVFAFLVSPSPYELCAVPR
Sequence of Cytochrome P450 2C9 (P11712 whole entry): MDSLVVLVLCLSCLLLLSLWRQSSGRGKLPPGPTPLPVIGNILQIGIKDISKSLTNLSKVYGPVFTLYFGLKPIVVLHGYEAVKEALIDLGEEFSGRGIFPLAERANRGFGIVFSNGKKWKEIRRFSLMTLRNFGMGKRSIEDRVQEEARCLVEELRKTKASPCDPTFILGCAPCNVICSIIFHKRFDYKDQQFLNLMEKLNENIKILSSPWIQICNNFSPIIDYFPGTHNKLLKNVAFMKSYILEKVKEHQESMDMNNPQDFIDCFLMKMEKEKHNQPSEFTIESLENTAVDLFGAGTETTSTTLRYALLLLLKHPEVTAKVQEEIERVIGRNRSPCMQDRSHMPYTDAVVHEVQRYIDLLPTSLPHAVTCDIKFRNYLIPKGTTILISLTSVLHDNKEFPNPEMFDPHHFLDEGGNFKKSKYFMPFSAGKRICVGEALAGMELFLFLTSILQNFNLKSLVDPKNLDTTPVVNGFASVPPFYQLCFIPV

IC50 (Cytochrome P450 2D6): > 50 µM
concentration [1]: 460 nM
clearance [2]: 40.7 mL/min/kg
INH [3]: 12 nM
half-life [5]: 24 min
concentration at 2 h [6]: 4900 nM
INH [8]: 36.4 µM
Activity [9]: 16%
fraction unbound [10]: 0.164
logD [11]: 1.9
INH [12]: 16 nM
AUC(0-inf) [13]: 3 µM·h
Vd [14]: 1.2 L/kg
IC50 (Cytochrome P450 2C9): > 50 µM
Cmax [15]: 2700 nM
Tmax [16]: 48 min
Tmax [17]: 120 min
Cmax [18]: 5300 nM
EC50 [20]: > 30 µM
bioavailability [21]: 49%
Tmax [22]: 18 min
Tmax [23]: 60 min
Papp [24]: 33 ×10⁻⁶ cm/s
Cmax [25]: 2100 nM
clearance [26]: 12 mL/min/kg
bioavailability [27]: 64%
fraction unbound [28]: 0.04
SMILES: COc1ccc(CNC(=O)c2cc(-c3cncc(C)c3)ncc2-c2nccs2)nc1OC
Activity (Canis familiaris [4]): Active
Activity (Rattus norvegicus): Active
Activity (Mus musculus [7]): inactive
Activity (Canis familiaris [19]): Active
Activity (Mus musculus [29]): Active
